# Test results reported in patent US9206159B2, “Piperazine-piperidine compounds as hepatitis C virus inhibitors” (Theravance Biopharma R&D IP, LLC, priority 2012, dated 2015).
# Columns and labels:
# [1] = tested on: HCV genotype 1a replicon cell line; test: HCV Genotype 1a Replicon Assay; type: cell-based, hepatitis C virus; details: Huh7.5 cell background, NS3-specific protease activity in lysates, 48 or 72 hours; for EC50: Hepatitis C virus, read-out: Genotype 1a (pEC50 class) (converted)
# Method in brief: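 Huh7.5-based subgenomic genotype 1a replicon cells, plated without G418, exposed to compound dose-responses (0.5% DMSO final) for 48 or 72 h at 37 °C. Lysate NS3/4a protease activity read with 15 μM FRET substrate, 20 min at 37 °C (Ex 340/Em 509 nm); EC50 from 4-parameter fit.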
# [2] = tested on: HCV genotype 1b replicon cell line; test: HCV Genotype 1b Replicon Assay; type: cell-based, hepatitis C virus; details: Renilla luciferase readout, 48 hours; for Genotype 1b (pEC50 class): Huh7 cell background; for EC50: Hepatitis C virus, Huh-7, Huh7 cell background, read-out: Genotype 1b (pEC50 class) (converted)
# Excerpt: Assay 1: HCV Genotype 1b Replicon Assay
# The HCV genotype 1b replicon cell line was obtained from Apath LLC (Brooklyn, N.Y.) (APC144; Huh7 cell background). This subgenomic replicon contains the N-terminus of the HCV core protein fused to the neomycin-resistance selectable marker. The EMCV IRES lies downstream and drives expression of humanized Renilla luciferase fused to the non-structural proteins NS3-NS5B. This cell line was used to determine compound potency using the luciferase activity readout as a measurement of compound inhibition of replicon levels.
# Cells were grown at 37° C. in a 5% CO2 humidified incubator in DMEM (Invitrogen) with 10% FBS (HyClone), 1×NEAA (Invitrogen), 1× Pen-Strep (Invitrogen), and 500 μg/mL G418 (Invitrogen). On day 1 of the assay, cells were plated at 10,000 cells/well in white 96-well tissue culture plates (Costar) in 200 μL media lacking G418. Four hours later, once the cells have adhered, the media was removed and replaced with media (no G418) containing dose-responses of test compounds. Compounds were initially diluted in DMSO and then diluted another 200× in media to bring the final DMSO concentration down to 0.5%. The cells were incubated with test compounds for 48 hours. At the end of the incubation period, media and compound were removed from the plates and the luciferase activity was determined using Promega Renilla-Glo reagents.
# To analyze the data, the luciferase activity was plotted vs. the compound concentration, and EC50 values were determined from a 4-parameter robust fit model with the GraphPad Prism software package (GraphPad Software, Inc., San Diego, Calif.). Results are expressed as the negative decadic logarithm of the EC50 value, pEC50.
# Test compounds having a higher pEC50 value in this assay show greater inhibition of HCV genotype 1b replication.
Structure (SMILES),Genotype 1a (pEC50 class) [1],Genotype 1b (pEC50 class) [2],EC50 [1] [nM],EC50 [2] [nM]
COC(=O)N[C@H](C(=O)N1C[C@@H](C)C[C@H]1c1nc2c(ccc3cc(-c4ccc(NC(=O)N5CCN(C6CCN(C(=O)[C@H]7CC7(C)C)CC6)CC5)cc4OC(F)(F)F)ccc32)[nH]1)C(C)C [Example 6-1],D (D represents pEC50>10 (EC50<0.1 nM)),D (D represents pEC50>10 (EC50<0.1 nM)),–,–
COC(=O)N[C@H](C(=O)N1C[C@@H](C)C[C@H]1c1nc2c(ccc3cc(-c4ccc(NC(=O)N5CCN(C6CCN(C(=O)C(C)(C)CO)CC6)CC5)cc4OC(F)(F)F)ccc32)[nH]1)C(C)C [Example 6-4],–,–,< 0.1,< 0.1
"COC(=O)N[C@H](C(=O)N1C[C@@H](C)C[C@H]1c1nc(-c2ccc(-c3ccc(NC(=O)N4CCN(C5CCN(C(=O)C(C)(C)C)CC5)CC4)cc3OC(F)(F)F)cc2)c(Cl)[nH]1)C(C)C [Example 7, [(S)-1-((2S,4S)-2-{5-Chloro-4-[4′-({4-[1-(2,2-dimethyl-propionyl)-piperidin-4-yl]-piperazine-1-carbonyl}-amino)-2′-trifluoromethoxy-biphenyl-4-yl]-1H-imidazol-2-yl}-4-methyl-pyrrolidine-1-carbonyl)-2-methyl-propyl]-carbamic acid methyl ester]",–,–,< 0.1,< 0.1
COC(=O)N[C@H](C(=O)N1C[C@@H](C)C[C@H]1c1nc(-c2ccc(-c3ccc(NC(=O)N4CCC(N5CCN(C(=O)C(C)(C)CO)CC5)CC4)cc3OC(F)(F)F)cc2)c[nH]1)C1CCOCC1 [Example 9-1],"C (C represents pEC50 between and 9 and about 10, (EC50 between 1 nM and 0.1 nM))",D (D represents pEC50>10 (EC50<0.1 nM)),–,–
COC(=O)N[C@H](C(=O)N1C[C@@H](C)C[C@H]1c1nc(-c2ccc(-c3ccc(NC(=O)N4CCC(N5CCN(C(=O)C(C)(C)C)CC5)CC4)cc3OC(F)(F)F)cc2)c(F)[nH]1)C1CCOCC1 [Example 9-2],–,–,< 0.1,< 0.1
COC(=O)N[C@H](C(=O)N1C[C@@H](C)C[C@H]1c1nc(-c2ccc(-c3ccc(NC(=O)N4CCC(N5CCN(C(=O)C(C)(C)CO)CC5)CC4)cc3OC(F)(F)F)cc2)c(F)[nH]1)C1CCOCC1 [Example 9-3],–,–,0.1 to 1,< 0.1
"COC(=O)N[C@H](C(=O)N1C[C@@H](C)C[C@H]1c1nc(-c2ccc(-c3cc(Cl)c(NC(=O)N4CCC(N5CCN(C(=O)[C@H]6CC6(C)C)C[C@@H]5C)CC4)cc3OC(F)(F)F)cc2)c[nH]1)C(C)C [Example 11, ((S)-1-{(2S,4S)-2-[4-(5′-Chloro-4′-{[4-((S)-4-dimethylcyclopropane-carbonyl-2-methyl-piperazin-1-yl)-piperidine-1-carbonyl]-amino}-2′-trifluoromethoxy-biphenyl-4-yl)-1H-imidazol-2-yl]-4-methyl-pyrrolidine-1-carbonyl}-2-methyl-propyl)-carbamic acid methyl ester]",–,–,< 0.1,< 0.1
"COC(=O)N[C@H](C(=O)N1C[C@@H](C)C[C@H]1c1nc2c(ccc3cc(-c4ccc(NC(=O)N5CCN(C6CCN(C(=O)C7CC7)CC6)CC5)cc4OC(F)(F)F)ccc32)[nH]1)C(C)C [Example 16, ((S)-1-{(2S,4S)-2-[7-(4-{[4-(1-Cyclopropanecarbonyl-piperidin-4-yl)-piperazine-1-carbonyl]-amino}-2-trifluoromethoxy-phenyl)-3H-naphth[1,2-d]imidazol-2-yl]-4-methyl-pyrrolidine-1-carbonyl}-2-methyl-propyl)-carbamic acid methyl ester]",–,–,< 0.1,< 0.1
"COC(=O)N[C@H](C(=O)N1C[C@@H](C)C[C@H]1c1nc(-c2ccc(-c3ccc(NC(=O)N4CCC(N5CCN(C(=O)C(C)(C)C)CC5)CC4)cc3OC(F)(F)F)cc2)c[nH]1)C1CCOCC1 [Example 17, [(S)-2-((2S,4S)-2-{4-[4′-({4-[4-(2,2-Dimethyl-propionyl)-piperazin-1-yl]-piperidine-1-carbonyl}-amino)-2′-trifluoromethoxy-biphenyl-4-yl]-1H-imidazol-2-yl}-4-methyl-pyrrolidin-1-yl)-2-oxo-1-(tetrahydro-pyran-4-yl)-ethyl]-carbamic acid methyl ester]",–,–,0.1 to 1,< 0.1
